The values that follow come from PMC6355697, “Binding Specificity of Native Odorant-Binding Protein Isoforms Is Driven by Phosphorylation and O-N-Acetylglucosaminylation in the Pig Sus scrofa” (Frontiers in Endocrinology, 2019).

Like-named read-outs stand apart in the source and are kept apart here. A value given as a limit tells only on which side of the number the result lay.

In assay [1] the target is T1, OBP-native-iso2 (Sus scrofa, UniProt P81245).
T1 construct: Proteins were gently extracted from RM of pre-pubertal males of S. scrofa; from tissue; host or cells: RM (respiratory mucosa) extract of pre-pubertal male pigs, purified by two rounds of anion-exchange HPLC
T1 sequence (P81245 1-157): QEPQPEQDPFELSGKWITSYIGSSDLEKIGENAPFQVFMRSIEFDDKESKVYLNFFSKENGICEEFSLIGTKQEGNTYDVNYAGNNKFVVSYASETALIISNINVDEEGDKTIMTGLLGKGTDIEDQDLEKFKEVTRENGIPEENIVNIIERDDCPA
The experiment in a line: Fluorescence titration with the probe AMA. It counts as binding. Particulars: OBP-native-iso2 at 2.5 μM, 50 mM Tris buffer pH 7.8, estimated. The procedure:
(§1) Androstenone (3-keto-5α, 16-androstene), androstenol (3α-hydroxy-5α-androst-16-ene), testosterone (17β-hydroxy-3-oxo-4-androstene), palmitic acid (hexadecanoic acid), myristic acid (tetradecanoic acid), and AMA (1-aminoanthracene) were purchased from Sigma-Aldrich. UV-visible spectra were recorded on a Cary-100 double beam spectrometer (Varian) with a cell of 0.5 cm path length. The protein concentration was calculated by UV-visible spectroscopy, by using the molar extinction coefficient of 11,740 M^−1cm^−1 for OBP (calculated by the software “ProtParam tool” at www.expasy.org) at the maximum wavelength of absorption (280 nm). Steady state fluorescence measurements were performed on a Fluoromax-3 (Jobin-Yvon) spectrofluorimeter using a micro quartz cell (0.5 cm light-path) with a reflecting window. 1-Aminoantracene (AMA) was used as a fluorescent probe. The experimental conditions and data treatment have been described previously ([17]). The dissociation constant (Kd-AMA) of the OBP-AMA complex was calculated from the binding curve by fitting the experimental data with the use of the computer program Origin 7.5 (OriginLab Corporation). The affinities of the five ligands were measured in a competitive binding assay with AMA as the fluorescent probe. AMA was dissolved in 100% ethanol to yield a 1 mM stock solution. For protein titration, aliquots of AMA were successively added to the protein at 1 or 2.5 μM in 50 mM Tris buffer (pH 7.8) and emission spectra were acquired after a 15 min equilibration period. Competitive binding experiments were then carried out with different protein and ligand concentrations. The spectra were recorded 15 min after the ligand addition, and competition was monitored by following the decrease in intensity of fluorescence associated with the band of AMA bound to the protein. The apparent Kd values of the ligand-protein complexes were calculated as described in Brimau et al. ([17]).
(§2) We measured the affinity of the four native OBP isoforms for the five selected ligands under the same experimental conditions that were used previously for recombinant OBP isoforms ([17]). The four isoforms were first titrated with the fluorescent probe, AMA. OBP-native-iso3 was collected in smaller quantities than the 3 other isoforms and was used at a 1 μM concentration instead of 2.5 μM and saturated with 2 μM AMA, instead of 3.75 μM AMA. […] Two classes of isoforms, -iso1 and -iso2, bound the two fatty acids and not the steroids.

For assay [2], the target named is T2, OBP-native-iso4 (Sus scrofa, UniProt P81245).
T2 sequence (P81245 1-157): T1 sequence (P81245 1-157)
The experiment in a line: Fluorescence titration with the probe AMA. It counts as binding. Particulars: OBP-native-iso4 at 2.5 μM, 50 mM Tris buffer pH 7.8, estimated. The method, then: as §1, §2

Assay [3] concerns the target T3, OBP-native-iso1 (Sus scrofa, UniProt P81245).
T3 construct: Proteins were gently extracted from RM of pre-pubertal males of S. scrofa; from tissue; host or cells: RM (respiratory mucosa) extract of pre-pubertal male pigs, purified by two rounds of anion-exchange HPLC
T3 sequence (P81245 1-157): T1 sequence (P81245 1-157)
The experiment in a line: Fluorescence titration with the probe AMA. Type of assay: binding. Particulars: OBP-native-iso1 at 2.5 μM, 50 mM Tris buffer pH 7.8, estimated. The method, then:
as §1, §2

Assay [4] deals with T4, OBP-native-iso3 (Sus scrofa, UniProt P81245).
T4 sequence (P81245 1-157): T1 sequence (P81245 1-157)
In words: Fluorescence titration with the probe AMA. It counts as binding. The settings on record: OBP-native-iso3 at 1 μM, 50 mM Tris buffer pH 7.8, estimated. The method, then: as §1, §2

The target of assay [5] is T1, OBP-native-iso2. In words: Competitive fluorescence binding assay with AMA as probe. Particulars: for IC50: OBP-native-iso2 2.5 μM saturated with 3.75 μM AMA, competitor 0 to 6 μM; for Kd: calculated dissociation constant from AMA competition. The procedure:
as §1, §2
(§3) Figure 6 Competitive binding assays of five selected ligands of biological relevance to native OBP isoforms from S. scrofa. (A) OBP-native-iso1; (B) OBP-native-iso2; (C) OBP-native-iso3; and (D) OBP-native-iso4. Proteins were used at 2.5 μM (A,B,D) or 1 μM (C) concentration and were saturated with 3.75 μM (A,B,D) or 2 μM (C) of the fluorescent probe 1-AMA. Competitors were added at increasing concentration from 0 to 6 μM (A,B) or to 15 μM (C,D).

Assay [6] concerns the target T2, OBP-native-iso4. Described as above. Particulars: for binding of ligand (in words) / Kd: OBP-native-iso4; for IC50: OBP-native-iso4 2.5 μM saturated with 3.75 μM AMA, competitor 0 to 15 μM; for Kd: calculated dissociation constant from AMA competition. The method, then:
as §1, §2, §3

Assay [7] has as its system OBP-native-iso4. The assay is described as above. Particulars: ratio of Ka values. Also noted: species or system Sus scrofa. The procedure:
as §1, §2, §3

Assay [8] addresses T3, OBP-native-iso1. The description is as above. The settings on record: for IC50: OBP-native-iso1 2.5 μM saturated with 3.75 μM AMA, competitor 0 to 6 μM; for Kd: calculated dissociation constant from AMA competition. The procedure:
as §1, §2, §3

For assay [9], the target named is T4, OBP-native-iso3. The description is as above. Particulars: for binding of ligand (in words) / Kd: OBP-native-iso3; for IC50: OBP-native-iso3 1 μM saturated with 2 μM AMA, competitor 0 to 15 μM; for Kd: calculated dissociation constant from AMA competition. The procedure:
as §1, §2, §3

The next assay relates to OBP-Pichia-iso3. Further details: method as in PMID 20589419. The settings on record: OBP-Pichia-iso3, recombinant, phosphorylated only; cited from earlier work.

On to `Nc1cccc2cc3ccccc3cc12` [AMA, 1-aminoanthracene], for which the dissociation constant (Kd) – broadly, the free concentration of one partner at which half of the binding sites on the other are occupied at equilibrium, for simple one-to-one binding – on OBP-native-iso2 [1] is 230 ± 20 nM; on OBP-native-iso4 [2], 500 ± 20 nM; on OBP-native-iso1 [3], 370 ± 20 nM; at OBP-native-iso3 [4], 840 ± 80 nM.

Take `C[C@]12CC[C@@H](O)C[C@@H]1CC[C@@H]1[C@@H]2CC[C@]2(C)C=CC[C@@H]12` [Androstenol, 3α-hydroxy-5α-androst-16-ene]: the IC50 (usually the point on the concentration scale where inhibition reaches its midpoint) at OBP-native-iso2 [5] (read-out: IC50) was over 6000 nM; at OBP-native-iso4 [6] (read-out: IC50), 1430 nM; on OBP-native-iso1 [8] (read-out: IC50), over 6000 nM; on OBP-native-iso3 [9] (read-out: IC50), 2590 nM. Moreover, the “binding of ligand (in words)” value at OBP-native-iso4 [6] and on OBP-native-iso3 [9] was “bind” throughout. For the same molecule, the Kd at OBP-native-iso4 [6] is 160 nM; on OBP-native-iso3 [9] it was 490 nM. Besides, the “Ka value, OBP-native-iso4 compared with OBP-native-iso3” value in the assay with OBP-native-iso4 [7] is recorded as “three times greater”.

As to `C[C@]12CCC(=O)C[C@@H]1CC[C@@H]1[C@@H]2CC[C@]2(C)C=CC[C@@H]12` [Androstenone, 3-keto-5α, 16-androstene], the IC50 at OBP-native-iso2 [5] (read-out: IC50) was over 6000 nM; on OBP-native-iso4 [6] (read-out: IC50) it was 1890 nM; on OBP-native-iso1 [8] (read-out: IC50), over 6000 nM; on OBP-native-iso3 [9] (read-out: IC50), 1280 nM. Also, the “binding of ligand (in words)” value on OBP-native-iso4 [6] and on OBP-native-iso3 [9] was “bind” each time. For the same molecule, the Kd is 220 nM at OBP-native-iso4 [6] and 230 nM on OBP-native-iso3 [9].

As to `CCCCCCCCCCCCCC(=O)O` [Myristic acid, tetradecanoic acid], the IC50 on OBP-native-iso2 [5] (read-out: IC50) was 1030 nM; on OBP-native-iso4 [6] (read-out: IC50) it was over 15000 nM; at OBP-native-iso1 [8] (read-out: IC50) it was 330 nM. Moreover, the Kd was 110 nM on OBP-native-iso2 [5] (OBP-native-iso2) and 50 nM at OBP-native-iso1 [8] (OBP-native-iso1). The “binding of ligand (in words)” value in the assay on OBP-Pichia-iso3 is “to a lesser extent”.

As to `CCCCCCCCCCCCCCCC(=O)O` [Palmitic acid, hexadecanoic acid], the IC50 on OBP-native-iso2 [5] (read-out: IC50) was 1510 nM; at OBP-native-iso4 [6] (read-out: IC50), over 15000 nM; on OBP-native-iso1 [8] (read-out: IC50), 1030 nM. Also, the Kd on OBP-native-iso2 [5] (OBP-native-iso2) and at OBP-native-iso1 [8] (OBP-native-iso1) was 160 nM in each case. Further, the “binding of ligand (in words)” value with OBP-Pichia-iso3 is “not able to bind”.

Turning to `C[C@]12CC[C@H]3[C@@H](CCC4=CC(=O)CC[C@@]43C)[C@@H]1CC[C@@H]2O` [Testosterone, 17β-hydroxy-3-oxo-4-androstene, reference compound], the “binding of ligand (in words)” value on OBP-native-iso2 [5] (OBP-native-iso2), on OBP-native-iso4 [6], on OBP-native-iso1 [8] (OBP-native-iso1) and at OBP-native-iso3 [9] was “None of the four native isoforms bound” in each case. For the same molecule, the IC50 at OBP-native-iso2 [5], at OBP-native-iso4 [6], on OBP-native-iso1 [8] and at OBP-native-iso3 [9] was over 6000 nM throughout.
